A word on the inhibition: it is the change of the read-out against control, counted positive when it falls.

Like-named read-outs stand apart in the source and are kept apart here.

The source of these data is patent US7410963B2, “Benzo-1,4-diazepin-2-one derivatives as phosphodiesterase PDE2 inhibitors, preparation and therapeutic use thereof” (VIA Pharmaceuticals, Inc., priority 2003, dated 2008).

Assay [1] concerns the target T1, PDE2 (Bos taurus, UniProt P14099).
T1 sequence (P14099 1-921): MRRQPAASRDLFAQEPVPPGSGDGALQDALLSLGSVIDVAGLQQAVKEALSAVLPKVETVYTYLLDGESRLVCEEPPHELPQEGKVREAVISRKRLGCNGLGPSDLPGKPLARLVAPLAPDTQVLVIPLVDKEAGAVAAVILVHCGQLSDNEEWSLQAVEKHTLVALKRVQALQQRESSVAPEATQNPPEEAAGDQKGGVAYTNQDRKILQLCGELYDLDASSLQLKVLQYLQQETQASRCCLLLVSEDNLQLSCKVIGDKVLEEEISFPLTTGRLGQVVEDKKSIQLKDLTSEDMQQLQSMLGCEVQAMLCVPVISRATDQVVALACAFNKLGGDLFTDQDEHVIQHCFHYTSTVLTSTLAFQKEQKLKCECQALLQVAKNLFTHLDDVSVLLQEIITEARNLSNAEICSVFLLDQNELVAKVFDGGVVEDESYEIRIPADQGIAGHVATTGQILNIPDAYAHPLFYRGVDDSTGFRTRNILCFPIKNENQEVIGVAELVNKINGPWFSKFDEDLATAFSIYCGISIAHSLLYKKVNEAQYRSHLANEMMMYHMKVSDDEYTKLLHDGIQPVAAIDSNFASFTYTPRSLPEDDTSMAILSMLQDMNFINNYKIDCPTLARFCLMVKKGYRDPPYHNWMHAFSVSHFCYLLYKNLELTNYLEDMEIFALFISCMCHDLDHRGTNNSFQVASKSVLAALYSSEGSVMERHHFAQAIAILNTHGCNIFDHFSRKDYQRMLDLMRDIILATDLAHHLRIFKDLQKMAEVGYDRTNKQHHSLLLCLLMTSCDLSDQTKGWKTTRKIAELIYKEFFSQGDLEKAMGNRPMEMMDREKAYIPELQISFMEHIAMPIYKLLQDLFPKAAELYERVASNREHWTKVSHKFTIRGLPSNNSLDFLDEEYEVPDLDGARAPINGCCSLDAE
In words: Radioenzymatic phosphodiesterase assay: PDE2 inhibition. The class given is biochemical, bovine. The note with it: read-out: PDE2 percentage of inhibition at 10 μM. How it is done: Nucleoside radioactivity was determined by liquid scintillation.

In assay [2] the test system is PDE3. In words: Radioenzymatic phosphodiesterase assay: PDE3 inhibition (selectivity). To be noted: Table 2; 10 μM test compound; PDE3 of vascular smooth muscle.
Method: (§1) 3 g of tunica media from bovine aorta was cut in small piece and homogenized in a glass potter with 7 volumes/weight of buffer A containing protease inhibitors cocktails (20 mM Tris-HCl, 0.25 M saccharose, 2 mM magnesium acetate, 1 mM dithiothreitol, 5 mM EGTA, 2000 U/ml aprotinine, 10 mg/l leupeptine, 10 mg/l of soybean chemotrypsin inhibitor). The homogenate was centrifuged at 875000 g for 1 h and the surpernant was then transferred in DEAE-Sephacel (15×1.6 cm). The column was equilibrated beforehand with a buffer B (buffer A without saccharose, d'EGTA and protease inhibitors). […] Fractions were aliquoted and stored at −80° C. until further use.
(§2) The monophosphated adenosine or guanosine released by the hydrolysis of tritiated cyclic nucleotides was transformed into tritiated adenosine or guanosine by excess of nucleotidase. The obtained nucleoside was separated from nucleotides by anion exchange chromatography. Nucleoside radioactivity was determined by liquid scintillation.
(§3) The phosphodiesterase inhibitory activity of compounds was evaluated on other isoforms of phosphodiesterases such as PDE3, and PDE4 of vascular smooth muscle.
Assay [3] has as its system PDE4. In words: Radioenzymatic phosphodiesterase assay: PDE4 inhibition (selectivity). To be noted: Table 2; 10 μM test compound; PDE4 of vascular smooth muscle.
Method: as §1, §2, §3

As to `COc1ccccc1-c1cc2c(cc1OC)N(C)C(=O)CN=C2c1cccc(C(N)=O)c1` [Example 21, 3-[8-Methoxy-7-(2-methoxy-phenyl)-1-methyl-2-oxo-2,3-dihydro-1H-benzo[e][1,4]diazepin-5-yl]-benzamide], the inhibition at 10 µM in assay [1] (Table 1, 10 μM test compound) stood at 98%. Further, in assay [2], the “PDE3 percentage of inhibition at 10 μM” value worked out at 9%. Besides, in assay [3], the “PDE4 percentage of inhibition at 10 μM” value is reported as 18%.

As for `COc1ccc(-c2cc3c(cc2OC)N(C)C(=O)CN=C3c2cccc(C(N)=O)c2)cc1` [Example 22, 3-[8-Methoxy-7-(4-methoxy-phenyl)-1-methyl-2-oxo-2,3-dihydro-1H-benzo[e][1,4]diazepin-5-yl]-benzamide], the inhibition at 10 µM in assay [1] (Table 1, 10 μM test compound) was 99%. Also, the “PDE3 percentage of inhibition at 10 μM” value in assay [2] is 22%. In assay [3], the “PDE4 percentage of inhibition at 10 μM” value came out at 50%. Regarding `COc1cc2c(cc1-c1ccccc1Cl)C(c1cccc(C(N)=O)c1)=NCC(=O)N2C` [Example 23, 3-[7-(2-Chloro-phenyl)-8-methoxy-1-methyl-2-oxo-2,3-dihydro-1H-benzo[e][1,4]diazepin-5-yl]-benzamide], the inhibition at 10 µM in assay [1] (Table 1, 10 μM test compound) came out at 95%. Also, in assay [2], the “PDE3 percentage of inhibition at 10 μM” value was 25%. Also, the “PDE4 percentage of inhibition at 10 μM” value in assay [3] was found to be 20%. On the same counts, the results for `COc1ccc(OC)c(-c2ccc3c(c2)C(c2cccc(C(N)=O)c2)=NCC(=O)N3C)c1` [Example 31, 3-[7-(2,5-Dimethoxy-phenyl)-1-methyl-2-oxo-2,3-dihydro-1H-benzo[e][1,4]diazepin-5-yl]-benzamide] are 99%, 0% and 25%. For the compound `COc1cccc(OC)c1-c1ccc2c(c1)C(c1cccc(C(N)=O)c1)=NCC(=O)N2C` [Example 32, 3-[7-(2,6-Dimethoxy-phenyl)-1-methyl-2-oxo-2,3-dihydro-1H-benzo[e][1,4]diazepin-5-yl]-benzamide], the inhibition at 10 µM in assay [1] (Table 1, 10 μM test compound) came to 100%. Besides, the “PDE3 percentage of inhibition at 10 μM” value in assay [2] came to 0%. Further, the “PDE4 percentage of inhibition at 10 μM” value in assay [3] amounted to 27%. As to `COc1ccc(C2=NCC(=O)N(C)c3ccc(-c4c(OC)cccc4OC)cc32)cc1` [Example 75, 7-(2,6-Dimethoxy-phenyl)-5-(4-methoxy-phenyl)-1-methyl-1,3-dihydro-benzo[e][1,4]diazepin-2-one], the inhibition at 10 µM in assay [1] (Table 1, 10 μM test compound) worked out at 99%. In addition, the “PDE3 percentage of inhibition at 10 μM” value in assay [2] came out at 4%. The “PDE4 percentage of inhibition at 10 μM” value in assay [3] was found to be 78%. `COc1cc2c(cc1-c1ccccc1)C(c1ccc(C#Cc3ccccc3)cc1)=NCC(=O)N2C` [Example 97, 8-Methoxy-1-methyl-7-phenyl-5-(4-phenylethynyl-phenyl)-1,3-dihydro-benzo[e][1,4]diazepin-2-one]: in assay [1], the inhibition at 10 µM is 45%. As for `COCC#Cc1ccc(C2=NCC(=O)N(C)c3cc(OC)c(-c4ccccc4)cc32)cc1` [Example 98, 8-Methoxy-5-[4-(3-methoxy-prop-1-ynyl)-phenyl]-1-methyl-7-phenyl-1,3-dihydro-benzo[e][1,4]diazepin-2-one], the inhibition at 10 µM in assay [1] was determined as 80%. In the case of `COc1cccc(OC)c1-c1ccc2c(c1)C(c1ccc(Cl)c(Cl)c1)=NCC(=O)N2C` [Example 99, 5-(3,4-Dichloro-phenyl)-7-(2,6-dimethoxy-phenyl)-1-methyl-1,3-dihydro-benzo[e][1,4]diazepin-2-one], the inhibition at 10 µM in assay [1] came out at 98%. In the case of `COc1ccc(C2=NCC(=O)N(C)c3ccc(-c4c(OC)cccc4OC)cc32)cc1OC` [Example 101, 5-(3,4-Dimethoxy-phenyl)-7-(2,6-dimethoxy-phenyl)-1-methyl-1,3-dihydro-benzo[e][1,4]diazepin-2-one], the inhibition at 10 µM in assay [1] turned out to be 99%. Turning to `COc1cc2c(cc1-c1ccccc1)C(c1ccccc1Br)=NCC(=O)N2` [Example 102, 5-(2-Bromo-phenyl)-8-methoxy-7-phenyl-1,3-dihydro-benzo[e][1,4]diazepin-2-one], the inhibition at 10 µM in assay [1] (Table 1, 10 μM test compound) stood at 48%. As to `COCCCc1cccc(C2=NCC(=O)N(C)c3cc(OC)c(-c4ccccc4)cc32)c1` [Example 103, 8-Methoxy-5-[3-(3-methoxy-propyl)-phenyl]-1-methyl-7-phenyl-1,3-dihydro-benzo[e][1,4]diazepin-2-one], the inhibition at 10 µM in assay [1] (Table 1, 10 μM test compound) is 96%. For the compound `COc1cc2c(cc1-c1ccccc1)C(c1ccccc1Br)=NCC(=O)N2C` [Example 104, 5-(2-Bromo-phenyl)-8-methoxy-1-methyl-7-phenyl-1,3-dihydro-benzo[e][1,4]diazepin-2-one], the inhibition at 10 µM in assay [1] (Table 1, 10 μM test compound) was 71%. As for `CCCCC#Cc1ccc(C2=NCC(=O)N(C)c3cc(OC)c(-c4ccccc4)cc32)cc1` [Example 105, 5-(4-Hex-1-ynyl-phenyl)-8-methoxy-1-methyl-7-phenyl-1,3-dihydro-benzo[e][1,4]diazepin-2-one], the inhibition at 10 µM in assay [1] was 42%. Still for that read-out and setting: for `COCCCc1ccc(C2=NCC(=O)N(C)c3cc(OC)c(-c4ccccc4)cc32)cc1` [Example 106, 8-Methoxy-5-[4-(3-methoxy-propyl)-phenyl]-1-methyl-7-phenyl-1,3-dihydro-benzo[e][1,4]diazepin-2-one] the value was 47%. Consider `COc1cc2c(cc1-c1ccccc1)C(c1ccc(CCCNC(=O)OC(C)(C)C)cc1)=NCC(=O)N2C` [Example 107, {3-[4-(8-Methoxy-1-methyl-2-oxo-7-phenyl-2,3-dihydro-1H-benzo[e][1,4]diazepin-5-yl)-phenyl]-propyl}-carbamic acid tert-butyl ester], for which, in assay [1], the inhibition at 10 µM came to 92%. The same measure, in the same setting: for `COc1ccc(C2=NCC(=O)N(C)c3cc(OC)c(-c4ccccc4OC)cc32)cc1` [Example 108, 8-Methoxy-5-(4-methoxy-phenyl)-7-(2-methoxy-phenyl)-1-methyl-1,3-dihydro-benzo[e][1,4]diazepin-2-one] the value was 99%. Same read-out and setting: for `COc1ccc(C2=NCC(=O)N(C)c3cc(OC)c(-c4cc(OC)ccc4OC)cc32)cc1` [Example 110, 7-(2,5-Dimethoxy-phenyl)-8-methoxy-5-(4-methoxy-phenyl)-1-methyl-1,3-dihydro-benzo[e][1,4]diazepin-2-one] the value was 99%; for `COc1ccc(C2=NCC(=O)N(C)c3cc(OC)c(-c4c(F)cccc4OC)cc32)cc1` [Example 111, 7-(2-Fluoro-6-methoxy-phenyl)-8-methoxy-5-(4-methoxy-phenyl)-1-methyl-1,3-dihydro-benzo[e][1,4]diazepin-2-one], 99%. Same read-out and setting: with `COc1ccc(C2=NCC(=O)N(C)c3cc(OC)c(-c4ccccc4Oc4ccccc4)cc32)cc1` [Example 112, 8-Methoxy-5-(4-methoxy-phenyl)-1-methyl-7-(2-phenoxy-phenyl)-1,3-dihydro-benzo[e][1,4]diazepin-2-one] the figure was 99%. On to `COc1cc2c(cc1-c1ccccc1)C(c1ccc(Br)cc1)=NCC(=O)N2C` [Example 113, 5-(4-Bromo-phenyl)-8-methoxy-1-methyl-7-phenyl-1,3-dihydro-benzo[e][1,4]diazepin-2-one], for which the inhibition at 10 µM in assay [1] (Table 1, 10 μM test compound) is 94%. Consider `COc1cc2c(cc1-c1ccccc1)C(c1ccc(Br)cc1)=NCC(=O)N2` [Example 114, 5-(4-Bromo-phenyl)-8-methoxy-7-phenyl-1,3-dihydro-benzo[e][1,4]diazepin-2-one], for which the inhibition at 10 µM in assay [1] (Table 1, 10 μM test compound) came out at 72%.
